Entries after “also recorded” stand apart in the source; their conditions may differ. Read-outs that look alike come from different tables or passages of the source.
What was measured:
[1] = test system: human KB cervical tumors as xenografts; test: In vivo evaluation in advanced stage KB tumor xenograft; parameters: species or system SCID female mice
Procedure: SCID female mice bearing advanced stage human KB cervical tumors as xenografts (xenograft tumors) were administered compound AAG154353 of the present invention intravenously at various doses and schedules.
Mice were maintained on a Folic Acid deficient diet (Harlan-Teklad Diet #00434; Madison, Wis.) exclusively for approximately three weeks at the start of treatment. […] Thus, significant antitumor activity was detected. Toxicity as reflected in weight loss was modest.

hPCFT = target: T1, hPCFT (Homo sapiens, UniProt Q96NT5); test: Inhibition of [3H]MTX transport by hPCFT; format: cell-based; settings: initial studies over a range of pH values
T1 construct: expressed in transfected cells
T1 sequence (Q96NT5 1-459): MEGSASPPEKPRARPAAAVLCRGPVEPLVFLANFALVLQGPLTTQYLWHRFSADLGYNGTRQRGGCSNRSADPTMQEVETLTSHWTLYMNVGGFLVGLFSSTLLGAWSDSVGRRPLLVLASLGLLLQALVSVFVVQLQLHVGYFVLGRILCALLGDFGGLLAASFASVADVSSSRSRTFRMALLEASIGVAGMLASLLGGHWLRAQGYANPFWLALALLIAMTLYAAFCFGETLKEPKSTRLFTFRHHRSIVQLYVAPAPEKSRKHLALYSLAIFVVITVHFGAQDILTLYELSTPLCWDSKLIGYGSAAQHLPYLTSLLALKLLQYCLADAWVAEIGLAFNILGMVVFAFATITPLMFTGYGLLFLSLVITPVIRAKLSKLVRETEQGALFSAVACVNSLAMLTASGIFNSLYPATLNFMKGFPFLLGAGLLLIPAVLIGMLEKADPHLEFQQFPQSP

[2] = test system: PC43-10 cells (hRFC-expressing Chinese hamster ovary); test: Growth inhibition of hRFC-expressing PC43-10 CHO cells; format: cell-based
KB cells = test: Nucleoside/AICA protection from growth inhibition in KB cells; format: cell-based, human
[3] = test system: R2/VC cells (vector control R2 CHO); test: Growth inhibition of vector control R2 CHO cells (Cell TiterBlue, 96 h); format: cell-based, Chinese hamster; settings: Cricetulus griseus, read-out: Growth inhibition 50% inhibitory concentration, R2/VC
GARFTase = target: T2, GARFTase (Homo sapiens, UniProt P22102); test: In situ GARFTase assay (14C-glycine incorporation into formyl glycinamide ribonucleotide); format: cell-based; settings: mean IC50, SEM in parentheses
T2 construct: In the in situ GARFTase assay, incorporation of ^14C-glycine into formyl glycinamide ribonucleotide was measured; endogenous in cells
T2 sequence (P22102 1-1010): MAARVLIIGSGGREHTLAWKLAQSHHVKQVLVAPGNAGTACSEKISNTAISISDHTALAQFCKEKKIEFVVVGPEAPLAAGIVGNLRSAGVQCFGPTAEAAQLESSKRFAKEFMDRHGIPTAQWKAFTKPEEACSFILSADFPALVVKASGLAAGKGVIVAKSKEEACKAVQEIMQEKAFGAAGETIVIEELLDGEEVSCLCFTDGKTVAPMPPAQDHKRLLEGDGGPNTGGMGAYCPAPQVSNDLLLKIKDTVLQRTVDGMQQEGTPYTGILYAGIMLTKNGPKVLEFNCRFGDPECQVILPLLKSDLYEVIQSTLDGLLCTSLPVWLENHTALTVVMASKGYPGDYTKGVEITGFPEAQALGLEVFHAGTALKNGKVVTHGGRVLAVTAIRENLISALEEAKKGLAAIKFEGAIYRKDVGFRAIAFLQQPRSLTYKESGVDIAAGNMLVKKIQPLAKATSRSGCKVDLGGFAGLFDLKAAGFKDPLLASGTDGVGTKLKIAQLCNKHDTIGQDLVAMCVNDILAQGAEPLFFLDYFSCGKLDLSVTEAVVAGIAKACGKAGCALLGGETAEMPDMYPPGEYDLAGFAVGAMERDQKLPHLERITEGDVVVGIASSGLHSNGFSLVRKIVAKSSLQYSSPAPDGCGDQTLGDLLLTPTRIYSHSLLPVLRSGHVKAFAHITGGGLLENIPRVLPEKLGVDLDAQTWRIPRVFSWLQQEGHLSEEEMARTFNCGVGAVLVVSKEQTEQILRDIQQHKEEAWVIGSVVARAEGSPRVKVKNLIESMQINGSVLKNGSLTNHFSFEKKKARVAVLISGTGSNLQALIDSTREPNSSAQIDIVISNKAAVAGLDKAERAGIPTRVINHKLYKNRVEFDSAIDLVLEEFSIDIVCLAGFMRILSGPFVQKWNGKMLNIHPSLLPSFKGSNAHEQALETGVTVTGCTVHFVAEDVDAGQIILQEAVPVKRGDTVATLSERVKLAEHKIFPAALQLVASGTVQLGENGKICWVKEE

[4] = test system: KB human tumor cells (hRFC/FRα); test: Growth inhibition of KB human tumor cells (Cell Titer-blue cytotoxicity screen), with or without folic acid; format: cell-based; settings: for IC50: Homo sapiens
hRFC = target: T3, hRFC (Homo sapiens, UniProt P41440); test: Inhibition of [3H]MTX uptake by RFC in PC43 cells; format: cell-based; settings: pH 7.2-7.4; not shown
T3 construct: expressed in transfected cells; host or cells: PC43-10 (CHO subline derived from RFC- and FR-null R2 cells)
T3 sequence (P41440 1-591): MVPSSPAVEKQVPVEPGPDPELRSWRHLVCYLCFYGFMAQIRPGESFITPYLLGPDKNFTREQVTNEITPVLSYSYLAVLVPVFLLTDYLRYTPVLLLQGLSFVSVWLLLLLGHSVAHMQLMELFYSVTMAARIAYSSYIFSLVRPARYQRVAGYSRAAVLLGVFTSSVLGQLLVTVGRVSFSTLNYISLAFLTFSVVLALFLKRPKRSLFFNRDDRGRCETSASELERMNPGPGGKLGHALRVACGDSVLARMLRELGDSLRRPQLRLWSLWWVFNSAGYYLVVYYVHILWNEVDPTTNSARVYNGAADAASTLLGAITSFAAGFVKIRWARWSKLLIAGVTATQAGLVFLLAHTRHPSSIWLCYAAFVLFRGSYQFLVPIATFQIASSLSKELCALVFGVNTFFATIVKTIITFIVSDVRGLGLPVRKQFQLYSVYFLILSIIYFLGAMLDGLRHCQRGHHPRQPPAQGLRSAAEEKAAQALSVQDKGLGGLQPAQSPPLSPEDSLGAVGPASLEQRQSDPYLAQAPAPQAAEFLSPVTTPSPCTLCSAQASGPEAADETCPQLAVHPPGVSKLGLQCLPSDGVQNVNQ

[5] = test system: RT16 cells (hFRα-expressing Chinese hamster ovary); test: Growth inhibition of FR-expressing RT16 CHO cells, with or without folic acid; format: cell-based; settings: for IC50: Cricetulus griseus
[6] = Q2dx4 starting day 43, 500 mg/kg total dose IV

With Nc1nc2[nH]c(CCCCc3ccc(C(=O)N[C@@H](CCC(=O)O)C(=O)O)s3)cc2c(=O)[nH]1 [AAG154353, (S)-2-({5-[4-(2-amino-4-oxo-4,7-dihydro-3H-pyrrolo[2,3-d]pyrimidin-6-yl)-butyl]thiophene-2-carbonyl}-amino)-pentanedioic acid] the “Tumor response of late stage KB xenografts” value ([1]; IV, three mice on various dose/schedules, tumors 446 to 650 mg at start, folic acid deficient diet) was “tumors regressed completely”, the “Toxicity as reflected in weight loss” value ([1]; IV, various dose/schedules) was “modest” and the Tumor size [1, 6] was 63 mg. For the same molecule, the Tumor-free status [1, 6] was “tumor free up to day 60”, the “Time mouse tumor free” value ([1]; Q3dx4 starting day 37, 750 mg/kg total dose IV) was 30 days and the “Time mouse tumor free” value ([1]; Q4dx3 starting day 48, 187.5 mg/kg total dose IV) was 30 days. For the same molecule, the “Increased inhibition of hPCFT transport at acid (pH<7) over neutral (pH>7) conditions” value (hPCFT) was 2-3 fold, the “Growth inhibition of hRFC-expressing PC43-10 cells (in words)” value [2] was “Neither AAG154353 and AAG154360 showed appreciable growth inhibition; also recorded: nearly complete lack of drug activity” and the IC50 ([2]; Cricetulus griseus, PC43-10, read-out: Growth inhibition (IC50, nM) hRFC PC43-10) was over 1000 nM. For the same molecule, the “Effect of 5-amino-4-imidazolecarboxamide (AICA) on growth inhibition of KB cells” value (KB cells; AICA 320 μM) was “completely protected”, the “Effect of adenosine on growth inhibition of KB cells” value (KB cells; adenosine 60 μM) was “completely protective” and the “Effect of thymidine on growth inhibition of KB cells” value (KB cells; thymidine 10 μM) was “did not alter the growth inhibitory effects”. For the same molecule, the IC50 [3] was over 1000 nM, the IC50 (GARFTase) was 0.63 nM and the “Effect of folic acid co-treatment on growth inhibition of KB cells” value [4] was “completely reversed growth inhibition”. The IC50 ([4]; read-out: Growth inhibition (IC50, nM) hRFC/FRα KB) was 0.25 nM, the IC50 ([4]; read-out: Growth inhibition (IC50, nM) hRFC/FRα KB (+FA)) was over 1000 nM and the “Inhibition of [3H]MTX transport from hRFC in pC43-10 cells (in words)” value (hRFC) was “negligible inhibition”. The “Growth inhibition / FR-targeted activity toward RT16 cells (in words)” value [5] was “high level of FR-targeted activity”, the IC50 ([5]; RT16, read-out: Growth inhibition (IC50, nM) hFRα RT16) was 2 nM and the IC50 ([5]; RT16, read-out: Growth inhibition (IC50, nM) hFRα RT16 (+FA)) was over 1000 nM.

Reference: patent publication US10000498B2, “Selective proton coupled folate transporter and folate receptor, and GARFTase inhibitor compounds and methods of using the same” (Duquesne University of the Holy Spirit, priority 2008, dated 2018)
